{"source": "paper PMC10817531", "about": "“Chlorinated Enyne Fatty Acid Amides from a Marine Cyanobacterium: Discovery of Taveuniamides L-M and Pharmacological Characterization of Taveuniamide F as a GPCR Antagonist with CNR1 Selectivity” (Marine Drugs, 2023)", "test_in_all_cases": "PathHunter β-arrestin GpcrMAX assay", "assay_type_in_all_cases": "cell-based", "key": {"[1]": {"molecular_target": "AGTR1 (Homo sapiens, UniProt P30556)", "sequence (P30556 whole entry, the tested form may be a part)": "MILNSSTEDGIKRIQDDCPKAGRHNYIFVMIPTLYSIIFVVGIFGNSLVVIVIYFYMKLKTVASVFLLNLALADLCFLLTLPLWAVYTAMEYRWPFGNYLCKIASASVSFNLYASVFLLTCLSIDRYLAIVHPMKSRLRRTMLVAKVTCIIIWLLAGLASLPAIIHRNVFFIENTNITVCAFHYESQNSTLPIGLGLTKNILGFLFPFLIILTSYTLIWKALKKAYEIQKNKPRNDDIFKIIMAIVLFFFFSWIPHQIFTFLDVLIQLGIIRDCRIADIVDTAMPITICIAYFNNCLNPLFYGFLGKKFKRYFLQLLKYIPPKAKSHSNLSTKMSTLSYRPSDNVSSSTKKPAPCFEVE", "method": "(§1) GpcrMAX panel biosensor assays were used to characterize taveuniamide F (4, 20 µM) (agonist and antagonist mode). The experiments were carried out by DiscoveRx Corporation (Fremont, CA, USA) as described before, using PathHunter β-arrestin enzyme fragment complementation (EFC) technology."}, "[2]": {"molecular_target": "AVPR1B (Homo sapiens, UniProt P47901)", "method": "as §1"}, "[3]": {"molecular_target": "C3AR1 (Homo sapiens, UniProt Q16581)", "method": "as §1"}, "[4]": {"molecular_target": "C5L2 (Homo sapiens, UniProt Q9P296)", "method": "as §1"}, "[5]": {"molecular_target": "T1, CCR2 (Homo sapiens, UniProt P41597)", "T1 construct": "purchased DiscoveRx (Eurofins) gpcrMAX PathHunter β-arrestin panel", "method": "as §1"}, "[6]": {"molecular_target": "T2, CCR4 (Homo sapiens, UniProt P51679)", "T2 construct": "purchased DiscoveRx (Eurofins) gpcrMAX PathHunter β-arrestin panel", "T2 sequence (P51679 whole entry)": "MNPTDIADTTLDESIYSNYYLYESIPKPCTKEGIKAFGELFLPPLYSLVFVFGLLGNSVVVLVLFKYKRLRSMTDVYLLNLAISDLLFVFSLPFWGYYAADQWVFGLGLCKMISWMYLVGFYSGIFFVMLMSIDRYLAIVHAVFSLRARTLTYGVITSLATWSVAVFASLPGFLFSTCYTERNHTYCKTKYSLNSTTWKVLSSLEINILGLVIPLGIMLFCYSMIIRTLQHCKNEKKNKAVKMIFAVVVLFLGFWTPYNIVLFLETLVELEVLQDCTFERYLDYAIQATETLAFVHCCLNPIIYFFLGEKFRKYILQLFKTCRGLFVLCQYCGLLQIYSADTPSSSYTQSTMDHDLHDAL", "method": "as §1"}, "[7]": {"molecular_target": "T3, CCR7 (Homo sapiens, UniProt P32248)", "T3 construct": "purchased DiscoveRx (Eurofins) gpcrMAX PathHunter β-arrestin panel", "T3 sequence (P32248 25-378)": "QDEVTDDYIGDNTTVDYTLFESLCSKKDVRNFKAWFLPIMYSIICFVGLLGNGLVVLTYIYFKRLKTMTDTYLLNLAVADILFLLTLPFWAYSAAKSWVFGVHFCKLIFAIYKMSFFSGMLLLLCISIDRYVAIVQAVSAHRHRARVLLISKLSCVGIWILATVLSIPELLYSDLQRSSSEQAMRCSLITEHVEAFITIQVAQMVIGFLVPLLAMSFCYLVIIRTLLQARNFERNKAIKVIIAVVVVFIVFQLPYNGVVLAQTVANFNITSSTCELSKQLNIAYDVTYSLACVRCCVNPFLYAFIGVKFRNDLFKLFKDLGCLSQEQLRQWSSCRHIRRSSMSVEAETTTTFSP", "method": "as §1"}, "[8]": {"molecular_target": "T4, CCR8 (Homo sapiens, UniProt P51685)", "T4 construct": "purchased DiscoveRx (Eurofins) gpcrMAX PathHunter β-arrestin panel", "method": "as §1"}, "[9]": {"molecular_target": "T5, CRHR1 (Homo sapiens, UniProt P34998)", "T5 construct": "purchased DiscoveRx (Eurofins) gpcrMAX PathHunter β-arrestin panel", "T5 sequence (P34998 24-415)": "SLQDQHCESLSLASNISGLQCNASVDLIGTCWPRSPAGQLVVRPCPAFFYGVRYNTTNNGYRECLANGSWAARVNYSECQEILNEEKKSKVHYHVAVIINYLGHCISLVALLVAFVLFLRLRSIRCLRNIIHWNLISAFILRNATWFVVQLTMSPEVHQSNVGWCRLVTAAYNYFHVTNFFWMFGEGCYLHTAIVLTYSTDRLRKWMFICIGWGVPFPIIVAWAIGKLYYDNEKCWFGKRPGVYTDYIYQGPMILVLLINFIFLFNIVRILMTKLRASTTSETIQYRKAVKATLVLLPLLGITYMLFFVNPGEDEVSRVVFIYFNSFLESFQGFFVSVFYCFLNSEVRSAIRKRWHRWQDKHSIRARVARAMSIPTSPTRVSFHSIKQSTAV", "method": "as §1"}, "[10]": {"molecular_target": "T6, CRTH2 (Homo sapiens, UniProt Q9Y5Y4)", "T6 construct": "purchased DiscoveRx (Eurofins) gpcrMAX PathHunter β-arrestin panel", "T6 sequence (Q9Y5Y4 whole entry)": "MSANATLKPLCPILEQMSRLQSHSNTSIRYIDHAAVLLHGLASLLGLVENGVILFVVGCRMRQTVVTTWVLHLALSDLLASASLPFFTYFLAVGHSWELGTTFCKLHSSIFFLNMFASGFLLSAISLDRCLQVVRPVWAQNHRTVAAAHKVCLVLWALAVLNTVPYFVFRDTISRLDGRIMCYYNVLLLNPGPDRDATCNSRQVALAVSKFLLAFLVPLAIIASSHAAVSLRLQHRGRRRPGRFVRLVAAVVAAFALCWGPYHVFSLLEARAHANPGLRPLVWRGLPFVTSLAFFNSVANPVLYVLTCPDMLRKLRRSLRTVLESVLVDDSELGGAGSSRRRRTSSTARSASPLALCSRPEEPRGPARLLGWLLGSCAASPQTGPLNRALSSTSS", "method": "as §1"}, "[11]": {"molecular_target": "T7, CX3CR1 (Homo sapiens, UniProt P49238)", "T7 construct": "purchased DiscoveRx (Eurofins) gpcrMAX PathHunter β-arrestin panel", "T7 sequence (P49238 whole entry)": "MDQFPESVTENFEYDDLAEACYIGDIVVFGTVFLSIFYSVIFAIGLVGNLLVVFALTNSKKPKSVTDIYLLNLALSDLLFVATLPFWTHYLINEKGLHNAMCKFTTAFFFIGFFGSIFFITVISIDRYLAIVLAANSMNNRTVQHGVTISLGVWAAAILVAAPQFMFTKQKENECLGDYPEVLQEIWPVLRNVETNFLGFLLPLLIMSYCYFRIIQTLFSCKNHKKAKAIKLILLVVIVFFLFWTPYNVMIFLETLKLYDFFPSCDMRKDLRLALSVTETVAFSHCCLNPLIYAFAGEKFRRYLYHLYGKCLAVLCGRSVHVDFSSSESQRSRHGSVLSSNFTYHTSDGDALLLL", "method": "as §1"}, "[12]": {"molecular_target": "T8, CXCR3 (Homo sapiens, UniProt P49682)", "T8 construct": "purchased DiscoveRx (Eurofins) gpcrMAX PathHunter β-arrestin panel", "method": "as §1"}, "[13]": {"molecular_target": "T9, CXCR7 (Homo sapiens, UniProt P25106)", "T9 construct": "purchased DiscoveRx (Eurofins) gpcrMAX PathHunter β-arrestin panel", "method": "as §1"}, "[14]": {"molecular_target": "T10, DRD1 (Homo sapiens, UniProt P21728)", "T10 construct": "purchased DiscoveRx (Eurofins) gpcrMAX PathHunter β-arrestin panel", "method": "as §1"}, "[15]": {"molecular_target": "T11, EBI2 (Homo sapiens, UniProt P32249)", "T11 construct": "purchased DiscoveRx (Eurofins) gpcrMAX PathHunter β-arrestin panel", "method": "as §1"}, "[16]": {"molecular_target": "T12, EDG1 (Homo sapiens, UniProt P21453)", "T12 construct": "purchased DiscoveRx (Eurofins) gpcrMAX PathHunter β-arrestin panel", "T12 sequence (P21453 whole entry)": "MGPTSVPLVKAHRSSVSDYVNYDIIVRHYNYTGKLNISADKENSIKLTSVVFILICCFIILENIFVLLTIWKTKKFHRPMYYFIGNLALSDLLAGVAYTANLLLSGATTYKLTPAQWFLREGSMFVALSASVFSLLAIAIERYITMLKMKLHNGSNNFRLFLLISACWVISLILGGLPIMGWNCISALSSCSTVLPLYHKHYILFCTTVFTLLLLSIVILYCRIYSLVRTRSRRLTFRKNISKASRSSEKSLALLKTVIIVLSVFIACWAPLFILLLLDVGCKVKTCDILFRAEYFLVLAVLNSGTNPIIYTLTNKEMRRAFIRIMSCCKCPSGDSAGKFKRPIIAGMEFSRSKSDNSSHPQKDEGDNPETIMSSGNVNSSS", "method": "as §1"}, "[17]": {"molecular_target": "T13, EDG3 (Homo sapiens, UniProt Q99500)", "T13 construct": "purchased DiscoveRx (Eurofins) gpcrMAX PathHunter β-arrestin panel", "T13 sequence (Q99500 whole entry)": "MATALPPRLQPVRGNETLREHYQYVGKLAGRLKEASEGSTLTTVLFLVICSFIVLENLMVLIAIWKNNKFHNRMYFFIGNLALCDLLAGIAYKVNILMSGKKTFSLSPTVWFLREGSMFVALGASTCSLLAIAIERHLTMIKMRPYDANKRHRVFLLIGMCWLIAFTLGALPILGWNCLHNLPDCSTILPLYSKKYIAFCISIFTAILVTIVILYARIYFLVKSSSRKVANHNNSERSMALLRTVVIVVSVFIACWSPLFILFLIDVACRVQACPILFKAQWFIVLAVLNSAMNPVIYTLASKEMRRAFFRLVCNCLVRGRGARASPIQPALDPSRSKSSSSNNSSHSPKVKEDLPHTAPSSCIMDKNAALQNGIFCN", "method": "as §1"}, "[18]": {"molecular_target": "T14, EDG4 (Homo sapiens, UniProt Q9HBW0)", "T14 construct": "purchased DiscoveRx (Eurofins) gpcrMAX PathHunter β-arrestin panel", "method": "as §1"}, "[19]": {"molecular_target": "T15, EDG5 (Homo sapiens, UniProt O95136)", "T15 construct": "purchased DiscoveRx (Eurofins) gpcrMAX PathHunter β-arrestin panel", "method": "as §1"}, "[20]": {"molecular_target": "T16, F2RL3 (Homo sapiens, UniProt Q96RI0)", "T16 construct": "purchased DiscoveRx (Eurofins) gpcrMAX PathHunter β-arrestin panel", "method": "as §1"}, "[21]": {"molecular_target": "T17, FPRL1 (Homo sapiens, UniProt P25090)", "T17 construct": "purchased DiscoveRx (Eurofins) gpcrMAX PathHunter β-arrestin panel", "T17 sequence (P25090 whole entry)": "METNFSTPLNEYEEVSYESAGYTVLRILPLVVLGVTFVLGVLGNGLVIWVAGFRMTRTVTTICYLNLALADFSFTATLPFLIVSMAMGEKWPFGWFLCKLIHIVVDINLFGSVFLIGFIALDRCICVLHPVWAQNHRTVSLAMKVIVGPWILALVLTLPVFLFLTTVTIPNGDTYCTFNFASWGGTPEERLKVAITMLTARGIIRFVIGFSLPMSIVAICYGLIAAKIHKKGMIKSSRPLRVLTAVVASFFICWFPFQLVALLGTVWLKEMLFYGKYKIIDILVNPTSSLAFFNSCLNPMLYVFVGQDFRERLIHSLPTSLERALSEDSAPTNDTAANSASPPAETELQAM", "method": "as §1"}, "[22]": {"molecular_target": "T18, GCGR (Homo sapiens, UniProt P47871)", "T18 construct": "purchased DiscoveRx (Eurofins) gpcrMAX PathHunter β-arrestin panel", "T18 sequence (P47871 26-477)": "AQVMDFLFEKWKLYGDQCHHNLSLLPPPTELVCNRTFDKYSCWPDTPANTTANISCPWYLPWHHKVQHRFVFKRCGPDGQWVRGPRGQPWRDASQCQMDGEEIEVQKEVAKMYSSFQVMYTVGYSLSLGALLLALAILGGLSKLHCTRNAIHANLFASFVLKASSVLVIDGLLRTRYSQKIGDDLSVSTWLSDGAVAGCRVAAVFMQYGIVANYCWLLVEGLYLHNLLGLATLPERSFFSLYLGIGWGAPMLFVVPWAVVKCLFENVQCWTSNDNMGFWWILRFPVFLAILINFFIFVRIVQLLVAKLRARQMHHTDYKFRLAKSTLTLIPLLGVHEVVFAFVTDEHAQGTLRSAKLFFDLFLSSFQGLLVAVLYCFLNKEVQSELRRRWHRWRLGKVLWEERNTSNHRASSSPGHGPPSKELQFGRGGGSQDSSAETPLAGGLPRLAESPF", "method": "as §1"}, "[23]": {"molecular_target": "T19, GHSR (Homo sapiens, UniProt Q92847)", "T19 construct": "purchased DiscoveRx (Eurofins) gpcrMAX PathHunter β-arrestin panel", "method": "as §1"}, "[24]": {"molecular_target": "T20, GLP2R (Homo sapiens, UniProt O95838)", "T20 construct": "purchased DiscoveRx (Eurofins) gpcrMAX PathHunter β-arrestin panel", "method": "as §1"}, "[25]": {"molecular_target": "T21, HTR1A (Homo sapiens, UniProt P08908)", "T21 construct": "purchased DiscoveRx (Eurofins) gpcrMAX PathHunter β-arrestin panel", "method": "as §1"}, "[26]": {"molecular_target": "T22, MC4R (Homo sapiens, UniProt P32245)", "T22 construct": "purchased DiscoveRx (Eurofins) gpcrMAX PathHunter β-arrestin panel", "method": "as §1"}, "[27]": {"molecular_target": "T23, MCHR1 (Homo sapiens, UniProt Q99705)", "T23 construct": "purchased DiscoveRx (Eurofins) gpcrMAX PathHunter β-arrestin panel", "method": "as §1"}, "[28]": {"molecular_target": "T24, MLNR (Homo sapiens, UniProt O43193)", "T24 construct": "purchased DiscoveRx (Eurofins) gpcrMAX PathHunter β-arrestin panel", "method": "as §1"}, "[29]": {"molecular_target": "T25, MRGPRX1 (Homo sapiens, UniProt Q96LB2)", "T25 construct": "purchased DiscoveRx (Eurofins) gpcrMAX PathHunter β-arrestin panel", "method": "as §1"}, "[30]": {"molecular_target": "T26, NPY1R (Homo sapiens, UniProt P25929)", "T26 construct": "purchased DiscoveRx (Eurofins) gpcrMAX PathHunter β-arrestin panel", "T26 sequence (P25929 whole entry)": "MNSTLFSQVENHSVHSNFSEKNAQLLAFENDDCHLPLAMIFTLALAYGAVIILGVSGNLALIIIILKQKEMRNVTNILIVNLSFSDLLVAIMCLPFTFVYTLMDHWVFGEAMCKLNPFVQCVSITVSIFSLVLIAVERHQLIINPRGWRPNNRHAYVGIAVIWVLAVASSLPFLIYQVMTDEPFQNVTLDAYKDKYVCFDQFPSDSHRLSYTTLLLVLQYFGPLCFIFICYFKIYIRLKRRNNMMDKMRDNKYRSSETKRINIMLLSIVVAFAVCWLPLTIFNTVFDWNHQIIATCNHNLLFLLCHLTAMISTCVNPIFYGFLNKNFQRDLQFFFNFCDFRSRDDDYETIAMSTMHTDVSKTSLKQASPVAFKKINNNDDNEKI", "method": "as §1"}, "[31]": {"molecular_target": "T27, OPRK1 (Homo sapiens, UniProt P41145)", "T27 construct": "purchased DiscoveRx (Eurofins) gpcrMAX PathHunter β-arrestin panel", "method": "as §1"}, "[32]": {"molecular_target": "T28, P2RY1 (Homo sapiens, UniProt P47900)", "T28 construct": "purchased DiscoveRx (Eurofins) gpcrMAX PathHunter β-arrestin panel", "method": "as §1"}, "[33]": {"molecular_target": "T29, P2RY11 (Homo sapiens, UniProt Q96G91)", "T29 construct": "purchased DiscoveRx (Eurofins) gpcrMAX PathHunter β-arrestin panel", "method": "as §1"}, "[34]": {"molecular_target": "T30, PTGER3 (Homo sapiens, UniProt P43115)", "T30 construct": "purchased DiscoveRx (Eurofins) gpcrMAX PathHunter β-arrestin panel", "T30 sequence (P43115 whole entry)": "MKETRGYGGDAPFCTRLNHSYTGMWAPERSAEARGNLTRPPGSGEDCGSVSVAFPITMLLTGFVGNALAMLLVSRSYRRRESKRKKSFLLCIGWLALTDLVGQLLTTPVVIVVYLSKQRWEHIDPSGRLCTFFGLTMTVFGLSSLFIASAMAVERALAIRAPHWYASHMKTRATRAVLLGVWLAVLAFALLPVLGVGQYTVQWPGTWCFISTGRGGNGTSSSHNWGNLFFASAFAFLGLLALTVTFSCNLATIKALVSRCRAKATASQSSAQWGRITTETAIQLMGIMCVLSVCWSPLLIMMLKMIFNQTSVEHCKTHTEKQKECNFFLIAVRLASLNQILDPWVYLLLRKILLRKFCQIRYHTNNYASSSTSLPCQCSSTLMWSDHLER", "method": "as §1"}, "[35]": {"molecular_target": "T31, PTGER4 (Homo sapiens, UniProt P35408)", "T31 construct": "purchased DiscoveRx (Eurofins) gpcrMAX PathHunter β-arrestin panel", "method": "as §1"}, "[36]": {"molecular_target": "T32, PTGFR (Homo sapiens, UniProt P43088)", "T32 construct": "purchased DiscoveRx (Eurofins) gpcrMAX PathHunter β-arrestin panel", "T32 sequence (P43088 whole entry)": "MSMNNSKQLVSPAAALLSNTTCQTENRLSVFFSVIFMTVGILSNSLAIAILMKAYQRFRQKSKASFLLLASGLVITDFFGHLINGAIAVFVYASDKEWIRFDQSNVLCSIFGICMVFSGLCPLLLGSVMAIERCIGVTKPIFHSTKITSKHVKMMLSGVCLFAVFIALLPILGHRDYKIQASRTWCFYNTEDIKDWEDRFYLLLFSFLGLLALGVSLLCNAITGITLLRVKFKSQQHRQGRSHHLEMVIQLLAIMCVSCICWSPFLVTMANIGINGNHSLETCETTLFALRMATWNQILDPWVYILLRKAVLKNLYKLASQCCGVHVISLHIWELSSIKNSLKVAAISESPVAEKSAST", "method": "as §1"}, "[37]": {"molecular_target": "T33, PTGIR (Homo sapiens, UniProt P43119)", "T33 construct": "purchased DiscoveRx (Eurofins) gpcrMAX PathHunter β-arrestin panel", "method": "as §1"}, "[38]": {"molecular_target": "T34, RXFP3 (Homo sapiens, UniProt Q9NSD7)", "T34 construct": "purchased DiscoveRx (Eurofins) gpcrMAX PathHunter β-arrestin panel", "method": "as §1"}, "[39]": {"molecular_target": "T35, TACR3 (Homo sapiens, UniProt P29371)", "T35 construct": "purchased DiscoveRx (Eurofins) gpcrMAX PathHunter β-arrestin panel", "method": "as §1"}, "[40]": {"molecular_target": "T36, TSHR(L) (Homo sapiens, UniProt P16473)", "T36 construct": "purchased DiscoveRx (Eurofins) gpcrMAX PathHunter β-arrestin panel", "method": "as §1"}, "[41]": {"molecular_target": "T37, UTR2 (Homo sapiens, UniProt Q9UKP6)", "T37 construct": "purchased DiscoveRx (Eurofins) gpcrMAX PathHunter β-arrestin panel", "method": "as §1"}, "[42]": {"molecular_target": "T38, VIPR1 (Homo sapiens, UniProt P32241)", "T38 construct": "purchased DiscoveRx (Eurofins) gpcrMAX PathHunter β-arrestin panel", "method": "as §1"}, "[43]": {"molecular_target": "T39, VIPR2 (Homo sapiens, UniProt P41587)", "T39 construct": "purchased DiscoveRx (Eurofins) gpcrMAX PathHunter β-arrestin panel", "method": "as §1"}}, "data": [{"smiles": "CC(=O)N[C@@H](CCCC#C/C=C/Cl)CCCCCCC(Cl)Cl", "note": "[Compound 4, taveuniamide F]", "values": [{"measurement": "inhibition at 20 µM", "setting": "[1]", "result": 23.3, "unit": "%"}, {"measurement": "inhibition at 20 µM", "setting": "[2]", "result": 57.5, "unit": "%"}, {"measurement": "inhibition at 20 µM", "setting": "[3]", "result": 10.3, "unit": "%"}, {"measurement": "inhibition at 20 µM", "setting": "[4]", "result": 24.1, "unit": "%"}, {"measurement": "inhibition at 20 µM", "setting": "[5]", "result": -1.7, "unit": "%"}, {"measurement": "inhibition at 20 µM", "setting": "[6]", "result": 58.9, "unit": "%"}, {"measurement": "inhibition at 20 µM", "setting": "[7]", "result": 8.2, "unit": "%"}, {"measurement": "inhibition at 20 µM", "setting": "[8]", "result": 43, "unit": "%"}, {"measurement": "inhibition at 20 µM", "setting": "[9]", "result": -2.4, "unit": "%"}, {"measurement": "inhibition at 20 µM", "setting": "[10]", "result": 16.9, "unit": "%"}, {"measurement": "inhibition at 20 µM", "setting": "[11]", "result": 35.6, "unit": "%"}, {"measurement": "inhibition at 20 µM", "setting": "[12]", "result": 4.6, "unit": "%"}, {"measurement": "inhibition at 20 µM", "setting": "[13]", "result": 3.6, "unit": "%"}, {"measurement": "inhibition at 20 µM", "setting": "[14]", "result": 18.6, "unit": "%"}, {"measurement": "inhibition at 20 µM", "setting": "[15]", "result": 18, "unit": "%"}, {"measurement": "inhibition at 20 µM", "setting": "[16]", "result": 33.1, "unit": "%"}, {"measurement": "inhibition at 20 µM", "setting": "[17]", "result": 21, "unit": "%"}, {"measurement": "inhibition at 20 µM", "setting": "[18]", "result": 56.3, "unit": "%"}, {"measurement": "inhibition at 20 µM", "setting": "[19]", "result": 0.8, "unit": "%"}, {"measurement": "inhibition at 20 µM", "setting": "[20]", "result": 59.2, "unit": "%"}, {"measurement": "inhibition at 20 µM", "setting": "[21]", "result": 2.5, "unit": "%"}, {"measurement": "inhibition at 20 µM", "setting": "[22]", "result": 2.2, "unit": "%"}, {"measurement": "inhibition at 20 µM", "setting": "[23]", "result": 30.8, "unit": "%"}, {"measurement": "inhibition at 20 µM", "setting": "[24]", "result": 20.4, "unit": "%"}, {"measurement": "inhibition at 20 µM", "setting": "[25]", "result": 15.2, "unit": "%"}, {"measurement": "inhibition at 20 µM", "setting": "[26]", "result": 49.1, "unit": "%"}, {"measurement": "inhibition at 20 µM", "setting": "[27]", "result": 16.3, "unit": "%"}, {"measurement": "inhibition at 20 µM", "setting": "[28]", "result": 53.1, "unit": "%"}, {"measurement": "inhibition at 20 µM", "setting": "[29]", "result": -21.3, "unit": "%"}, {"measurement": "inhibition at 20 µM", "setting": "[30]", "result": 3.4, "unit": "%"}, {"measurement": "inhibition at 20 µM", "setting": "[31]", "result": 20.1, "unit": "%"}, {"measurement": "inhibition at 20 µM", "setting": "[32]", "result": 5.5, "unit": "%"}, {"measurement": "inhibition at 20 µM", "setting": "[33]", "result": 8.2, "unit": "%"}, {"measurement": "inhibition at 20 µM", "setting": "[34]", "result": -13, "unit": "%"}, {"measurement": "inhibition at 20 µM", "setting": "[35]", "result": 36.5, "unit": "%"}, {"measurement": "inhibition at 20 µM", "setting": "[36]", "result": 43.1, "unit": "%"}, {"measurement": "inhibition at 20 µM", "setting": "[37]", "result": 60.2, "unit": "%"}, {"measurement": "inhibition at 20 µM", "setting": "[38]", "result": 32.8, "unit": "%"}, {"measurement": "inhibition at 20 µM", "setting": "[39]", "result": 15.2, "unit": "%"}, {"measurement": "inhibition at 20 µM", "setting": "[40]", "result": 7.6, "unit": "%"}, {"measurement": "inhibition at 20 µM", "setting": "[41]", "result": 17.7, "unit": "%"}, {"measurement": "inhibition at 20 µM", "setting": "[42]", "result": -2.9, "unit": "%"}, {"measurement": "inhibition at 20 µM", "setting": "[43]", "result": 4.6, "unit": "%"}]}]}
